Consider ten molecules from ChEMBL document CHEMBL1201862, “PubChem BioAssay data set” (2004).

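In this assay, cells in 96-well plates receive the compound at five concentrations for 48 hours. Endpoints are linearly interpolated between the surrounding concentrations. Here, GI50 denotes the concentration required for 50% inhibition of growth.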 Calls of active or inactive are those of the source. No stated cut-off is given here; in the data, active = GI50 up to about 1.1 µM and inactive = higher. Where only a bound is given, the exact number is not on record here.

Some test systems named below: SK-OV-3; UACC-257; CCRF-CEM; UACC-62; SK-MEL-2; NCI-H23; SF-539; SF-268; HL-60; HCT-15; BT-549; MDA-MB-435; M14; T47D; NCI-H460; MOLT-4; Malme-3M; U-251; RXF 393; SW-620.
What all share (assay): NCI anticancer screen, dose series, 48 h

`CCOc1cccc(/C=N\c2ccccc2SSc2ccccc2/N=C\c2cccc(OCC)c2O)c1O`: the GI50 in the test with SK-OV-3 is 23.2 µM (inactive); with UACC-257, 5.77 µM (inactive); in the test with CCRF-CEM, 3.32 µM (inactive); with UACC-62 it was 4.28 µM (inactive); in the test with SK-MEL-2, 16.5 µM (inactive); with NCI-H23 it was 5.08 µM (inactive). The GI50 in the test on SF-539 was 26.5 µM (inactive); in the test with SF-268, 4.22 µM (inactive); with HL-60, 3.7 µM (inactive); with HCT-15 it was 3.44 µM; with BT-549, 1.58 µM (inactive); in the test with MDA-MB-435 it was 11.5 µM (inactive). Besides, the GI50 was 4.06 µM (inactive) in the test on M14; 1.26 µM (inactive) in the test on T47D; 5.48 µM (inactive) in the test on NCI-H460; 3.38 µM (inactive) in the test on MOLT-4; 10.2 µM (inactive) in the test on Malme-3M; 3.64 µM (inactive) in the test on U-251. Besides, the GI50 in the test on RXF 393 was 7.46 µM (inactive); in the test on SW-620, 8.49 µM (inactive).

In the case of `CCOC(=O)Cc1nc2c(O)ncnc2n1C1OC(COC(C)=O)C(OC(C)=O)C1OC(C)=O` (stereo not given), the GI50 in the test with SK-OV-3, in the test on UACC-257, in the test on CCRF-CEM, with UACC-62, with SK-MEL-2 and in the test on NCI-H23 was > 100 µM (inactive) in each case. Further, the GI50 in the test with SF-539 is > 100 µM (inactive); in the test with SF-268, > 100 µM (inactive); in the test with HL-60, > 100 µM (inactive); with HCT-15 it was more than 100 µM; with BT-549, > 100 µM (inactive); in the test with MDA-MB-435 it was > 100 µM (inactive). In addition, the GI50 in the test on M14, in the test on T47D, in the test on NCI-H460, in the test on MOLT-4, with Malme-3M and in the test with U-251 was > 100 µM (inactive) throughout. In addition, the GI50 in the test with RXF 393 and in the test with SW-620 was > 100 µM (inactive) throughout.

Consider `CC1=C(O)C(=O)C=C2C1=CC=C1[C@@]2(C)CC[C@@]2(C)[C@@H]3C[C@](C)(C(=O)O)CC[C@]3(C)CC[C@]12C` [CELASTROL], for which the GI50 in the test with SK-OV-3 is 0.238 µM (active); with UACC-257, 0.0256 µM (active); with CCRF-CEM, < 0.01 µM (active); in the test on UACC-62 it was 0.0237 µM (active); with SK-MEL-2, 0.119 µM (active); with NCI-H23 it was 0.0526 µM (active). The GI50 in the test with SF-539 is 0.0811 µM (active); in the test with SF-268 it was 0.0446 µM (active); with HL-60, 0.0173 µM (active); in the test on HCT-15 it was 0.0113 µM; in the test with BT-549 it was 0.0124 µM (active); in the test with MDA-MB-435, 0.0351 µM (active). For the same molecule, the GI50 with M14 is 0.0449 µM (active); in the test on T47D, 0.0198 µM (active); with NCI-H460, 0.149 µM (active); in the test with MOLT-4, 0.0124 µM (active); with Malme-3M, 0.0352 µM (active); in the test on U-251 it was 0.0298 µM (active). Also, the GI50 was 0.0111 µM (active) with RXF 393 and 0.0199 µM (active) in the test on SW-620.

In the case of `C#CC1NC(=O)C1N(CC)CC` (stereo not given), the GI50 with SK-OV-3, in the test with UACC-257, in the test with CCRF-CEM, with UACC-62, in the test on SK-MEL-2 and with NCI-H23 was > 100 µM (inactive) each time. For the same molecule, the GI50 with SF-539 was > 100 µM (inactive); with SF-268, > 100 µM (inactive); with HL-60, > 100 µM (inactive); in the test on HCT-15 it was more than 100 µM; in the test on BT-549, > 100 µM (inactive); in the test on MDA-MB-435 it was > 100 µM (inactive). Also, the GI50 with M14, in the test on T47D, in the test with NCI-H460, in the test with MOLT-4, in the test on Malme-3M and with U-251 was > 100 µM (inactive) throughout. In addition, the GI50 in the test with RXF 393 and in the test on SW-620 was > 100 µM (inactive) each time.

On to `COc1cc(/C=C/C(=N\NC(=S)NN)c2sc(NNC(C)=O)nc2C)ccc1O`, for which the GI50 in the test with SK-OV-3, in the test with UACC-257, in the test with CCRF-CEM, with UACC-62, in the test on SK-MEL-2 and in the test on NCI-H23 was > 100 µM (inactive) in each case. The GI50 in the test with SF-539 is > 100 µM (inactive); with SF-268, > 100 µM (inactive); in the test with HL-60 it was > 100 µM (inactive); in the test on HCT-15, more than 100 µM; in the test with BT-549 it was > 100 µM (inactive); in the test on MDA-MB-435, > 100 µM (inactive). For the same molecule, the GI50 in the test on M14, in the test on T47D, in the test with NCI-H460, in the test with MOLT-4, in the test on Malme-3M and with U-251 was > 100 µM (inactive) each time. In addition, the GI50 in the test with RXF 393 and with SW-620 was > 100 µM (inactive) throughout.

On to `O=C(O)c1cc2ccccc2c2c1C(=O)c1ccccc1-2`, for which the GI50 is 56.6 µM (inactive) in the test on SK-OV-3; > 100 µM (inactive) in the test with UACC-257; > 100 µM (inactive) in the test on CCRF-CEM; 45.9 µM (inactive) in the test with UACC-62; > 100 µM (inactive) in the test with SK-MEL-2; > 100 µM (inactive) with NCI-H23. In addition, the GI50 with SF-539 was > 100 µM (inactive); in the test with SF-268 it was > 100 µM (inactive); in the test with HL-60, > 100 µM (inactive); in the test on HCT-15 it was 92 µM; in the test with BT-549 it was > 100 µM (inactive); in the test with MDA-MB-435, > 100 µM (inactive). In addition, the GI50 was 46.7 µM (inactive) in the test on M14; > 100 µM (inactive) with T47D; > 100 µM (inactive) with NCI-H460; > 100 µM (inactive) with MOLT-4; 83.8 µM (inactive) with Malme-3M; > 100 µM (inactive) in the test on U-251. Moreover, the GI50 in the test with RXF 393 and in the test on SW-620 was > 100 µM (inactive) throughout.

For the molecule `CN(C)CCNC(=O)c1ccc(NCCCN(C)CCCNc2ccc(C(=O)NCCN(C)C)c3nc4ccc([N+](=O)[O-])cc4c(O)c23)c2c(O)c3cc([N+](=O)[O-])ccc3nc12`, the GI50 in the test on SK-OV-3 was 0.232 µM (active); in the test on UACC-257 it was 0.385 µM (active); in the test with CCRF-CEM, < 0.01 µM (active); with UACC-62, 0.0538 µM (active); in the test on SK-MEL-2, 0.0111 µM (active); with NCI-H23 it was 0.126 µM (active). The GI50 was 0.0186 µM (active) with SF-539; 0.065 µM (active) with SF-268; 0.0277 µM (active) in the test with HL-60; 0.368 µM in the test with HCT-15; 0.447 µM (active) with BT-549; 0.0861 µM (active) in the test on MDA-MB-435. The GI50 with M14 is 0.5 µM (active); in the test on T47D, 0.32 µM (active); with NCI-H460, < 0.01 µM (active); in the test on MOLT-4 it was < 0.01 µM (active); in the test on Malme-3M it was 0.126 µM (active); in the test with U-251, < 0.01 µM (active). Besides, the GI50 with RXF 393 is 0.101 µM (active); in the test on SW-620, < 0.01 µM (active).

On to `C[C@]12CC[C@H](O)CC1=CC[C@@H]1[C@@H]2CC[C@]2(C)c3nc(Cl)ccc3C[C@@H]12`, for which the GI50 with SK-OV-3 was 42.7 µM (inactive); in the test with UACC-257 it was > 100 µM (inactive); with CCRF-CEM, 8.17 µM (inactive); in the test on UACC-62, 11.5 µM (inactive); with SK-MEL-2, > 100 µM (inactive); in the test with NCI-H23, 24.6 µM (inactive). Further, the GI50 in the test on SF-539 is 14.9 µM (inactive); with SF-268, 26.7 µM (inactive); in the test on HL-60, 40.1 µM (inactive); in the test with HCT-15, 9.46 µM; in the test with BT-549, 26.1 µM (inactive); with MDA-MB-435, 6.76 µM (inactive). In addition, the GI50 is > 59.4 µM (inactive) in the test with M14; > 63.4 µM (inactive) in the test with T47D; 28.1 µM (inactive) in the test on NCI-H460; 8.45 µM (inactive) in the test with MOLT-4; 53 µM (inactive) in the test on Malme-3M; 31 µM (inactive) with U-251. Moreover, the GI50 was 37.9 µM (inactive) with RXF 393 and > 42.3 µM (inactive) in the test on SW-620.

Consider `O=C(N/N=C\c1cccs1)c1ccncc1`, for which the GI50 with SK-OV-3, in the test with UACC-257, in the test on CCRF-CEM, in the test with UACC-62, in the test with SK-MEL-2 and with NCI-H23 was > 100 µM (inactive) throughout. Further, the GI50 in the test on SF-539 is > 100 µM (inactive); in the test on SF-268, > 100 µM (inactive); with HL-60, > 100 µM (inactive); in the test with HCT-15, more than 100 µM; in the test on BT-549 it was > 100 µM (inactive); in the test with MDA-MB-435 it was > 100 µM (inactive). The GI50 in the test on M14, with T47D, in the test with NCI-H460, in the test on MOLT-4, with Malme-3M and in the test with U-251 was > 100 µM (inactive) throughout. The GI50 with RXF 393 and in the test with SW-620 was > 100 µM (inactive) throughout.

As to `COc1cc(-c2oc3ccccc3c(=O)c2O)cc(OC)c1OC`, the GI50 in the test on SK-OV-3 is 43.4 µM (inactive); in the test on UACC-257 it was > 69.3 µM (inactive); in the test with CCRF-CEM it was 3.32 µM (inactive); in the test with UACC-62, 6.5 µM (inactive); with SK-MEL-2, > 100 µM (inactive); in the test on NCI-H23, 61 µM (inactive). In addition, the GI50 in the test on SF-539 is 26.3 µM (inactive); with SF-268, 11.7 µM (inactive); in the test with HL-60 it was 7.08 µM (inactive); with HCT-15, 4.62 µM; with BT-549, > 55.2 µM (inactive); in the test with MDA-MB-435, > 100 µM (inactive). In addition, the GI50 is 14 µM (inactive) with M14; 6 µM (inactive) in the test on T47D; 4.19 µM (inactive) in the test with NCI-H460; 4.72 µM (inactive) in the test on MOLT-4; > 94.6 µM (inactive) with Malme-3M; 8.77 µM (inactive) in the test with U-251. The GI50 is 15.6 µM (inactive) with RXF 393 and > 80.2 µM (inactive) in the test on SW-620.
